Experimental data taken from ChEMBL document CHEMBL5329160, “Design, synthesis, and mechanistic study of 2-piperazineone-bearing peptidomimetics as novel HIV capsid modulators” (RSC Med Chem, 2023).

Key:
[1] = Selectivity index, ratio of CC50 for human MT4 cells to EC50 for HIV-2 ROD infected in human MT4 cells; type: toxicity, cell-based; conditions: read-out: Ratio CC50/EC50
[2] = Selectivity index, ratio of CC50 for human MT4 cells to EC50 for HIV-1 IIIB infected in human MT4 cells; type: toxicity, cell-based; conditions: read-out: Ratio CC50/EC50
[3] = test system: Human immunodeficiency virus 1; assay: Antiviral activity against HIV-1 IIIB infected in MT4 cells assessed as protection against virus induced cytotoxicity incubated for 5 days by MTT assay; type: functional, organism-based; conditions: Human immunodeficiency virus 1, IIIB, MT4, 120 h
[4] = Cytotoxicity against human MT4 cells assessed as reduction in cell viability after 5 days by MTT assay; type: toxicity, cell-based; conditions: time 5 day
[5] = test system: Human immunodeficiency virus 2; assay: Antiviral activity against HIV-2 ROD infected in MT4 cells assessed as protection against virus induced cytotoxicity and measured after 5 days by MTT spectrophotometric assay; type: functional, organism-based; conditions: Human immunodeficiency virus 2, ROD, MT4, 120 h

Row | Compound | selectivity ratio [1] | selectivity ratio [2] | EC50 [3] | CC50 at 120 h [4] | EC50 [5]
1 | COc1ccc(N(C)C(=O)[C@H](Cc2cc(F)cc(F)c2)NC(=O)CN2CCN(C(=O)c3ccc(C(F)(F)F)cc3)CC2=O)cc1 | < 1 | < 1 | > 18 µM | 18 µM | > 18 µM
2 | COC(=O)c1ccc(C(=O)N2CCN(CC(=O)N[C@@H](Cc3ccccc3)C(=O)N(C)c3ccc(OC)cc3)C(=O)C2)cc1 | 8.3 | < 1 | > 190 µM | 200 µM | 24 µM
3 | COc1ccc(N(C)C(=O)[C@H](Cc2cc(F)cc(F)c2)NC(=O)CN2CCN(C(=O)c3ccccc3N)CC2=O)cc1 | 19 | 8.9 | 18 µM | 160 µM | 8.6 µM
4 | COc1ccc(N(C)C(=O)[C@H](Cc2ccccc2)NC(=O)CN2CCN(C(=O)c3ccccc3)CC2=O)cc1 | > 67 | > 8.6 | 28 µM | > 240 µM | 3.6 µM
5 | COc1ccc(N(C)C(=O)[C@H](Cc2cc(F)cc(F)c2)NC(=O)CN2CCN(C(=O)c3ccc(Br)cc3)CC2=O)cc1 | < 1 | < 1 | > 19 µM | 19 µM | > 19 µM
6 | COc1ccc(N(C)C(=O)[C@H](Cc2ccccc2)NC(=O)CN2CCN(C(=O)c3ccccc3F)CC2=O)cc1 | 18 | 5.8 | 24 µM | 140 µM | 7.8 µM
7 | COc1ccc(N(C)C(=O)[C@H](Cc2ccccc2)NC(=O)CN2CCN(C(=O)c3ccc(C)cc3)CC2=O)cc1 | 7 | 1.9 | 33 µM | 64 µM | 9.2 µM
8 | COc1ccc(N(C)C(=O)[C@H](Cc2cc(F)cc(F)c2)NC(=O)CN2CCN(C(=O)c3ccc(F)cc3)CC2=O)cc1 | 3.7 | 3.8 | 20 µM | 77 µM | 21 µM
9 | COc1ccc(N(C)C(=O)[C@H](Cc2ccccc2)NC(=O)CN2CCN(C(=O)c3ccc(N)cc3)CC2=O)cc1 | > 8.2 | > 11 | 21 µM | > 230 µM | 28 µM
10 | COc1ccc(N(C)C(=O)[C@H](Cc2ccccc2)NC(=O)CN2CCN(C(=O)c3cccc(F)c3)CC2=O)cc1 | > 50 | > 10 | 23 µM | > 230 µM | 4.6 µM
11 | COc1ccc(N(C)C(=O)[C@H](Cc2cc(F)cc(F)c2)NC(=O)CN2CCN(C(=O)c3cccc(N)c3)CC2=O)cc1 | > 14 | > 10 | 23 µM | > 220 µM | 16 µM
12 | COc1ccc(N(C)C(=O)[C@H](Cc2ccccc2)NC(=O)CN2CCN(C(=O)c3ccc(Br)cc3)CC2=O)cc1 | < 1 | < 1 | > 11 µM | 11 µM | > 11 µM
13 | COc1ccc(N(C)C(=O)[C@H](Cc2ccccc2)NC(=O)CN2CCN(C(=O)c3ccc(F)cc3)CC2=O)cc1 | 7 | < 1 | > 77 µM | 77 µM | 11 µM
14 | COc1ccc(N(C)C(=O)[C@H](Cc2ccccc2)NC(=O)CN2CCN(C(=O)c3ccc(C(F)(F)F)cc3)CC2=O)cc1 |  |  | ≥ 37 µM | 42 µM | ≥ 41 µM
15 | COc1ccc(N(C)C(=O)[C@H](Cc2cc(F)cc(F)c2)NC(=O)CN2CCN(C(=O)c3ccccc3)CC2=O)cc1 |  | 4.4 | 25 µM | 110 µM | 12 µM
16 | COc1ccc(N(C)C(=O)[C@H](Cc2ccccc2)NC(=O)CN2CCN(C(=O)c3ccccc3N)CC2=O)cc1 | 30 | 7 | 23 µM | 160 µM | 5.4 µM
